This data set in a line: xn = mol fraction of the nth substance listed.

± gives the uncertainty stated by the source.

With `CC[n+]1ccn(C)c1.O=S(=O)([O-])C(F)(F)F` + O + CC(=O)[O-].CC[n+]1ccn(C)c1, the viscosity is, setting by setting: (293.15 K, 100 kPa, x2 = 0.337, x3 = 0.64) 91 ± 13 mPa·s; (293.15 K, 100 kPa, x2 = 0.341, x3 = 0.612) 87 ± 12 mPa·s; (293.15 K, 100 kPa, x2 = 0.348, x3 = 0.555) 80 ± 11 mPa·s; (293.15 K, 100 kPa, x2 = 0.359, x3 = 0.492) 72 ± 10 mPa·s.
With `CC[NH+](C)CC.CS(=O)(=O)[O-]` + O + CC[NH+](C)CC.O=S(=O)([O-])C(F)(F)F, the viscosity by setting is: (313.15 K, 101 kPa, x2 = 0.121, x3 = 0) 46.5 ± 3.3 mPa·s; (333.15 K, 101 kPa, x2 = 0.121, x3 = 0) 21.6 ± 1.5 mPa·s; (353.15 K, 101 kPa, x2 = 0.121, x3 = 0) 12.05 ± 0.85 mPa·s.

These data come from the CheMixHub ionic liquid set.
